Measurements reported in US7125997B2, “Differential tumor cytotoxicity compounds and compositions” (IRM LLC, priority 2002, dated 2006).

Tested on: Human SW620 colon tumor cells
Assay: alamarBlue cell viability (cytotoxicity) assay, SW620
Assay type: cell-based
Conditions: SW-620, 48 h, SW620 cell line, two days incubation, alamarBlue fluorescence
Experimental: Human SW620 colon tumor cells are cultivated using 10% FCS/DMEM (Invitrogen) medium. The cells are plated into 384 well plates at a density of 8000 cells per well in a volume of 50 μL. The cells are placed in a 37° C. incubator and allowed to adhere overnight. Test compounds are added to the cells in a volume of 500 nL (final DMSO concentration in assay is 1%). Serial dilutions of the test compound are added (the top concentration of compound is 10 micromolar (final assay concentration) followed by 11 two fold dilutions. The cells are incubated for a further two days. A solution (50 μL) comprised of 20% alamarBlue™ (Biosource International, Inc.) and 80% assay medium is added to each well and the plates are incubated at 37° C. for a further 4 hours. The plates are read by fluorescence (530 nm excitation, 580 nm emission) on an Acquest reader (LJL Biosystems). The IC50 is defined as the concentration of a test compound at the end of the incubation period, which leads to 50% of cell viability per well compared with the control (concentration at semi-maximum inhibition of cell growth).

Compound `O=C(Nc1ccc(N2CCOCC2)cc1)c1ccc(Nc2ccc(OC(F)(F)F)cc2)cc1` [Example 1, N-(4-Morpholin-4-yl-phenyl)-4-(4-trifluoromethoxy-phenylamino)-benzamide] has an IC50 of 0.026 µM.
